Results: patent publication EP1420018A1, “Pyrido[1,2-a]benzimidazole derivatives useful in treating central nervous system disorders” (Ortho-McNeil Pharmaceutical, Inc., priority 1996, dated 1998)
Where two headings read alike, the source gives them in different places.

Legend:
[1] = molecular target: benzodiazepine site of the GABA-A receptor; experiment: Benzodiazepine Receptor Binding Assay (inhibition of 3H-flunitrazepam binding); conditions: read-out: GABAA Receptor Binding IC50
[2] = test system: Anxiety in the Adult Male Rat; experiment: Suppression of Anxiety in the Adult Male Rat (rat conflict test); assay type: in vivo, rats; conditions: Rattus norvegicus, rat
Outline: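 Male rats, 48 h water- and 24 h food-deprived, trained with 200 unpunished licks, tested at expected peak drug activity. Every 20th lick punished by 0.2-s shock over a 3-min session; increase in median shocks versus concurrent vehicle assessed by one-tailed Mann-Whitney test (p<0.05), validated with a positive-control anxiolytic.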

[3] = test system: metrazol-induced convulsions; experiment: Suppression of Metrazol-Induced Convulsions in Adult Male Mice; assay type: in vivo; conditions: Mus musculus, po, mouse
[4] = test system: metrazol-induced convulsions; experiment: as above; assay type: in vivo; conditions: Mus musculus, ip, mouse
[5] = po, po, read-out: Rat Conflict (MED, mg/kg) po

SMILES | IC50 [1] [nM] | minimal effective dose [2, 5] [mg/kg] | ED50 [3] [mg/kg] | ED50 [4] [mg/kg] | minimal effective dose ([2]; ip, ip, read-out: Rat Conflict (MED, mg/kg) ip) [mg/kg]
CC(C)(C)OC(=O)CN1C2=C(C(=O)Nc3ccccc3F)C(=O)CCN2c2ccc(F)cc21 [Compound 176] | 56.2 | > 10 | > 30 | > 1 | 
O=C(O)CN1C2=C(C(=O)Nc3ccccc3F)C(=O)CCN2c2ccc(F)cc21 [Compound 177] | 54.8 | > 10 | > 30 | > 1 | 
O=C(Nc1c(F)cccc1F)OCCN1C2=C(C(=O)Nc3c(F)cccc3F)C(=O)CCN2c2ccc(F)cc21 [Compound 179] | 7.65 |  | > 30 | 10 | > 10
CC1(CN2C3=C(C(=O)Nc4ccccc4F)C(=O)CCN3c3ccc(F)cc32)COC1 [Compound 180] | 18 | > 10 | > 30 | 1 | 
